In PubChem BioAssay AID2060610 (Molecular Pharmacology Branch, DTP, NCI, 2025):

System: 616215-338-R-J1-PDC complex spheroids, viability % test/control
Assay: Anticancer human tumor 616215-338-R-J1-PDC patient-derived colon adenocarcinoma cell line growth inhibition [CLK]
Details: for IC50: curve of first compound; for viability, T/C: stronger effect = lower value
Procedure, shortened: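 Patient-derived tumor cells grown as complex spheroids with HUVEC endothelial cells and mesenchymal stem cells, treated with drug combinations. Concentrations descend in half-log steps from near clinical Cmax, or from 10 microM if Cmax unknown.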

[1] = second compound 0.0316 µM, first compound 0.0316 µM
[2] = second compound 0.0316 µM, first compound 0.1 µM
[3] = second compound 0.0316 µM, first compound 0.316 µM
[4] = second compound 0.0316 µM, first compound 1 µM
[5] = second compound 0.1 µM, first compound 0.0316 µM
[6] = second compound 0.1 µM, first compound 0.1 µM
[7] = second compound 0.1 µM, first compound 0.316 µM
[8] = second compound 0.1 µM, first compound 1 µM
[9] = second compound 0.316 µM, first compound 0.0316 µM
[10] = second compound 0.316 µM, first compound 0.1 µM
[11] = second compound 0.316 µM, first compound 0.316 µM
[12] = second compound 0.316 µM, first compound 1 µM
[13] = second compound 1 µM, first compound 0.0316 µM
[14] = second compound 1 µM, first compound 0.1 µM
[15] = second compound 1 µM, first compound 0.316 µM
[16] = second compound 1 µM, first compound 1 µM
[17] = second compound 3.16 µM, first compound 0.0316 µM
[18] = second compound 3.16 µM, first compound 0.1 µM
[19] = second compound 3.16 µM, first compound 0.316 µM
[20] = second compound 3.16 µM, first compound 1 µM
[21] = second compound 10 µM, first compound 0.0316 µM
[22] = second compound 10 µM, first compound 0.1 µM
[23] = second compound 10 µM, first compound 0.316 µM
[24] = second compound 10 µM, first compound 1 µM
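Further: spheroids exposed to agents for 7 days.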
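Wherever viability, T/C is given: 100% = DMSO vehicle wells.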

O=C(c1cc(Cc2n[nH]c(=O)c3ccccc23)ccc1F)N1CCN(C(=O)C2CC2)CC1 + CN1CCN(c2cc(C(=O)Nc3cc4cc(-c5cnn(C)c5)ccc4cn3)ccn2)CC1
IC50 (second compound 0.0316 µM): > 10000 nM
IC50 (second compound 0.1 µM): > 10000 nM
IC50 (second compound 0.316 µM): < 31.6 nM
IC50 (second compound 1 µM): < 31.6 nM
IC50 (second compound 3.16 µM): < 31.6 nM
IC50 (second compound 10 µM): < 31.6 nM
viability, T/C [1]: 99.4%
viability, T/C [2]: 113%
viability, T/C [3]: 100%
viability, T/C [4]: 96.6%
viability, T/C (second compound 0.0316 µM, first compound 3.16 µM): 103%
viability, T/C (second compound 0.0316 µM, first compound 10 µM): 67.3%
viability, T/C [5]: 114%
viability, T/C [6]: 110%
viability, T/C [7]: 98.9%
viability, T/C [8]: 107%
viability, T/C (second compound 0.1 µM, first compound 3.16 µM): 82.9%
viability, T/C (second compound 0.1 µM, first compound 10 µM): 55.4%
viability, T/C [9]: 34.9%
viability, T/C [10]: 44.1%
viability, T/C [11]: 31.3%
viability, T/C [12]: 40.5%
viability, T/C (second compound 0.316 µM, first compound 3.16 µM): 30.6%
viability, T/C (second compound 0.316 µM, first compound 10 µM): 29.3%
viability, T/C [13]: 0.12%
viability, T/C [14]: 0.17%
viability, T/C [15]: 0.13%
viability, T/C [16]: 0.1%
viability, T/C (second compound 1 µM, first compound 3.16 µM): 1.83%
viability, T/C (second compound 1 µM, first compound 10 µM): 0.09%
viability, T/C [17]: 0.09%
viability, T/C [18]: 0.15%
viability, T/C [19]: 0.12%
viability, T/C [20]: 0.1%
viability, T/C (second compound 3.16 µM, first compound 3.16 µM): 0.12%
viability, T/C (second compound 3.16 µM, first compound 10 µM): 0.19%
viability, T/C [21]: 0.11%
viability, T/C [22]: 0.14%
viability, T/C [23]: 0.18%
viability, T/C [24]: 0.13%
viability, T/C (second compound 10 µM, first compound 3.16 µM): 0.23%
viability, T/C (second compound 10 µM, first compound 10 µM): 1.83%

COc1c(OCCCN2CCOCC2)ccc2c3n(c(=NC(=O)c4cnc(N)nc4)nc12)CCN3 + CNC(=O)c1ccc(Nc2nc(OC3CCCC3)c3c(-c4ccc5nc(C)oc5c4)c[nH]c3n2)c(OC)c1
IC50 (second compound 0.0316 µM): 208 nM
IC50 (second compound 0.1 µM): 45.9 nM
IC50 (second compound 0.316 µM): < 3.16 nM
IC50 (second compound 1 µM): < 3.16 nM
IC50 (second compound 3.16 µM): < 3.16 nM
IC50 (second compound 10 µM): < 3.16 nM
viability, T/C (second compound 0.0316 µM, first compound 0.00316 µM): 92.4%
viability, T/C (second compound 0.0316 µM, first compound 0.01 µM): 94.7%
viability, T/C [1]: 115%
viability, T/C [2]: 69.1%
viability, T/C [3]: 45.7%
viability, T/C [4]: 32.3%
viability, T/C (second compound 0.1 µM, first compound 0.00316 µM): 62.4%
viability, T/C (second compound 0.1 µM, first compound 0.01 µM): 61.5%
viability, T/C [5]: 57.7%
viability, T/C [6]: 34%
viability, T/C [7]: 26.6%
viability, T/C [8]: 26.1%
viability, T/C (second compound 0.316 µM, first compound 0.00316 µM): 41.4%
viability, T/C (second compound 0.316 µM, first compound 0.01 µM): 39.3%
viability, T/C [9]: 26.5%
viability, T/C [10]: 20.6%
viability, T/C [11]: 14.5%
viability, T/C [12]: 12.5%
viability, T/C (second compound 1 µM, first compound 0.00316 µM): 32.9%
viability, T/C (second compound 1 µM, first compound 0.01 µM): 30.1%
viability, T/C [13]: 21.2%
viability, T/C [14]: 13.1%
viability, T/C [15]: 9.29%
viability, T/C [16]: 9.49%
viability, T/C (second compound 3.16 µM, first compound 0.00316 µM): 35.6%
viability, T/C (second compound 3.16 µM, first compound 0.01 µM): 31.1%
viability, T/C [17]: 21.4%
viability, T/C [18]: 12%
viability, T/C [19]: 9.19%
viability, T/C [20]: 8.84%
viability, T/C (second compound 10 µM, first compound 0.00316 µM): 35.3%
viability, T/C (second compound 10 µM, first compound 0.01 µM): 29.4%
viability, T/C [21]: 19.2%
viability, T/C [22]: 11.1%
viability, T/C [23]: 10.4%
viability, T/C [24]: 7.75%
